Columns and labels:
[1] = system: EU-1; experiment: WST cytotoxicity assay, cancer cell EU-1; format: cell-based, human; conditions: Homo sapiens, EU-1, EU-1; no other cell line named in the cell; read-out: Cancer cell (EU-1) cytotoxicity IC50
Description: This study used two ALL cell lines (EU-1 and EU-3) and three NB cell lines (NB-1643, SHEP1 and LA1-55N). All 5 cancer cell lines were established from pediatric ALL or NB patients and were well-characterized for their expression of MDM2 and p53-status, as reported previously. All cell lines were grown in standard culture medium (RPMI 1640 containing 10% FBS, 2 mmol/L L-glutamine, 50 U penicillin and 50 μg/mL streptomycin) at 37° C. in a humidified atmosphere containing 5% CO2.
The cytotoxic effect of MX 69 and MX69 analogs on cancer cells was determined using the water-soluble tetrazolium salt (WST) assay. Briefly, cells cultured in 96-well microtiter plates were treated with different concentrations of AQ-101 for a 20-h period. WST (25 μg/well) was then added and incubation continued for an additional 4 h, after which optical density (OD) was read with a microplate reader (test wavelength of 450 nm; reference wavelength of 620 nm).

[2] = target: T1, MDM2 (Homo sapiens, UniProt Q00987); experiment: MDM2 reduction / expression (Western blot); format: cell-based; conditions: words or +/− grades, key not given
T1 construct: ubiquitination of endogenous MDM2 in EU-1 cells; endogenous in cells; host or cells: EU-1 (ALL) cells
T1 sequence (Q00987 whole entry): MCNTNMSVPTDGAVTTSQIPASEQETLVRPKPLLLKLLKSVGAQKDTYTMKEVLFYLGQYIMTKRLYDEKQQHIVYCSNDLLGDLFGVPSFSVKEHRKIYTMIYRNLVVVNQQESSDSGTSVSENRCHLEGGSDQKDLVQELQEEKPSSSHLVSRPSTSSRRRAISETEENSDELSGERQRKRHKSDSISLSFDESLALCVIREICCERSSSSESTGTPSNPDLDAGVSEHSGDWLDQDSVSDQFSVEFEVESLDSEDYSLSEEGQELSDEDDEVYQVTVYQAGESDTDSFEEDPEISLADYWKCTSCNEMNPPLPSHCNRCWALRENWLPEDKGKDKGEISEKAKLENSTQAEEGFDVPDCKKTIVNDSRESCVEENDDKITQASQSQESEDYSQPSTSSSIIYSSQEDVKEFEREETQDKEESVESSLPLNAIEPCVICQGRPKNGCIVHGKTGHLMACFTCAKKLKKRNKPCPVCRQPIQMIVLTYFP
Description: Cells were lysed in a buffer composed of 50 mM Tris, pH 7.6, 150 mM NaCl, 1% Nonidet P-40, 10 mM sodium phosphate, 10 mM NaF, 1 mM sodium orthovanadate, 2 mM phenylmethylsulfonyl fluoride (PMSF), […], 10 μg/mL leupeptin and 10 μg/mL pepstatin. After centrifugation, the clarified cell lysate was separated from the pellet of cell debris, and then incubated with 15 μL Protein G/Protein A-agarose and 1 μg of antibodies, overnight at 4° C. For the Western blot, the resulting cell lysates or immunoprecipitates were resolved by SDS-PAGE. They were then transferred to a nitrocellulose filter and probed with the specific antibodies as listed in the supplemental Materials section. Finally, proteins were visualized with a chemiluminescent detection system.

Row | Structure (SMILES) | MDM2 reduction [2] | IC50 [1]
1 | CC(=O)c1ccc(NS(=O)(=O)c2ccc3c(c2)[C@H]2OCC[C@H]2C(c2cccc(C(C)=O)c2)N3)cc1 (stereo in doubt) [Compound 69L101, 4-(3-acetylphenyl)-N-(4-acetylphenyl)-2,3,3a,4,5,9b-hexahydrofuro[3,2-c]quinoline-8-sulfonamide] | inhibition | 1800 nM
2 | CC(=O)c1cccc(NS(=O)(=O)c2ccc3c(c2)[C@H]2OCC[C@H]2C(c2cccc(C(C)=O)c2)N3)c1 (stereo in doubt) [Compound 69L103, N,4-bis(3-acetylphenyl)-2,3,3a,4,5,9b-hexahydrofuro[3,2-c]quinoline-8-sulfonamide] | No MDM2 | 970 nM
3 | CC(=O)c1ccc([C@@H]2Nc3ccc(S(=O)(=O)Nc4ccc(C)c(C)c4)cc3[C@H]3C=CC[C@H]32)cc1 [Compound 69L48] | inhibition | 3800 nM
4 | CC(C)C(=O)c1ccc(C2Nc3ccc(S(=O)(=O)Nc4ccccc4)cc3[C@H]3OCC[C@@H]23)cc1 (some centres unmarked) [Compound 69L75] | No MDM2 | 3210 nM
5 | Cc1ccc(NS(=O)(=O)c2ccc3c(c2)[C@H]2C=CC[C@H]2[C@H](c2ccc(C(=O)C(C)C)cc2)N3)cc1C [Compound 69L80] | No MDM2 | 2660 nM
6 | Cc1ccc(NS(=O)(=O)c2ccc3c(c2)C2OCC[C@H]2C(c2ccc(C(=O)C(C)C)cc2)N3)cc1C (some centres unmarked) [Compound 69L96] | inhibition | 2080 nM
7 | Cc1cccc(NS(=O)(=O)c2ccc3c(c2)C(=O)CC(c2ccc(C(=O)C(C)C)cc2)N3)c1 (centres unmarked) [Compound 69L99, 2-(4-isobutyrylphenyl)-4-oxo-N-(m-tolyl)-1,2,3,4-tetrahydroquinoline-6-sulfonamide] | inhibition | 230 nM
8 | CC(C)C(=O)c1ccc(C2CC(=O)c3cc(S(=O)(=O)Nc4ccc(Cl)c(Cl)c4)ccc3N2)cc1 (centres unmarked) [Compound 69L100, N-(3,4-dichlorophenyl)-2-(4-isobutyrylphenyl)-4-oxo-1,2,3,4-tetrahydroquinoline-6-sulfonamide] | No MDM2 | 1870 nM
9 | O=S(=O)(Nc1ccc(Cl)c(Cl)c1)c1ccc2nc(C3CCCCC3)ccc2c1 [Compound 69L105] | No MDM2 | 3120 nM
10 | Cc1ccc(NS(=O)(=O)c2ccc3c(c2)C(=O)CC(c2ccc(C(=O)C(C)C)cc2)N3)cc1Cl (centres unmarked) [Compound 69L107, N-(3-chloro-4-methylphenyl)-2-(4-isobutyrylphenyl)-4-oxo-1,2,3,4-tetrahydroquinoline-6-sulfonamide] | inhibition | 930 nM
11 | Cc1cc(NS(=O)(=O)c2ccc3c(c2)C(=O)CC(c2ccc(C(=O)C(C)C)cc2)N3)ccc1F (centres unmarked) [Compound 69L108, N-(4-fluoro-3-methylphenyl)-2-(4-isobutyrylphenyl)-4-oxo-1,2,3,4-tetrahydroquinoline-6-sulfonamide] | inhibition | 420 nM
12 | CC(=O)c1cccc(C2CC(=O)c3cc(S(=O)(=O)Nc4ccc(F)c(C)c4)ccc3N2)c1 (centres unmarked) [Compound 69L109, 2-(3-acetylphenyl)-N-(4-fluoro-3-methylphenyl)-4-oxo-1,2,3,4-tetrahydroquinoline-6-sulfonamide] | No MDM2 | 100 nM
13 | CC(=O)c1cccc(S(=O)(=O)Nc2ccc3c(c2)[C@H]2OCC[C@H]2C(c2ccc(C(=O)C(C)C)cc2)N3)c1 (some centres unmarked) [Compound 69L163, 3-acetyl-N-(4-(4-isobutyrylphenyl)-2,3,3a,4,5,9b-hexahydrofuro[3,2-c]quinolone-8-yl)benzenesulfonamide] | – | 2500 nM
14 | COc1cc(NS(=O)(=O)c2ccc3c(c2)C(=O)CC(c2cccc(C(C)=O)c2)N3)ccc1C (centres unmarked) [Compound 69L164] | – | 710 nM
15 | COc1cc(NS(=O)(=O)c2ccc3c(c2)C(=O)CC(c2ccc(C(C)=O)cc2)N3)ccc1C (centres unmarked) [Compound 69L165] | – | 8900 nM
16 | CCc1cccc(NS(=O)(=O)c2ccc3c(c2)C(=O)CC(c2cccc(C(=O)N(C)C)c2)N3)c1 (centres unmarked) [Compound 69L166] | – | 110 nM
17 | CCc1cccc(NS(=O)(=O)c2ccc3nc(-c4cccc(C(=O)C(C)C)c4)c(OC)cc3c2)c1 [Compound 69L167] | – | 3600 nM
18 | CCc1cccc(NS(=O)(=O)c2ccc3c(c2)C(=O)C(F)C(c2cccc(C(=O)C(C)C)c2)N3)c1 (centres unmarked) [Compound 69L168] | – | 340 nM

More lines, main results first:

Row | MDM2 reduction [2] | Structure (SMILES) | IC50 [1]
19 | inhibition | Cc1ccc(NS(=O)(=O)c2ccc3c(c2)C2OCC[C@H]2C(c2ccc(C(=O)c4ccccc4)cc2)N3)cc1C (stereo in doubt) [Compound 69L54] | 3220 nM
20 | No MDM2 | Cc1ccc(NS(=O)(=O)c2ccc3c(c2)[C@H]2OCC[C@H]2[C@H](C2CCNCC2)N3)cc1C [Compound 69L55] | 1640 nM
21 | inhibition | Cc1ccc(NS(=O)(=O)c2ccc3c(c2)[C@H]2OCC[C@H]2[C@H](C2CCC(C(C)C)CC2)N3)cc1C (some centres unmarked) [Compound 69L56, N-(3,4-dimethylphenyl)-4-(4-isopropylcyclohexyl)-2,3,3a,4,5,9b-hexahydrofuran[3,2-c]quinolone-8-sulfonamine] | 10200 nM
22 | No MDM2 | O=S(=O)(Nc1ccccc1)c1ccc2c(c1)[C@H]1OCC[C@H]1[C@H](C1CCCCC1)N2 [Compound 69L66] | 2560 nM
23 | No MDM2 | Cc1ccc(NS(=O)(=O)c2ccc3c(c2)[C@H]2OCC[C@H]2C(c2ccc(C(=O)C4CCCCC4)cc2)N3)cc1C (some centres unmarked) [Compound 69L70] | 3090 nM
24 | No MDM2 | CCCC(=O)c1ccc(C2Nc3ccc(S(=O)(=O)Nc4ccc(C)c(C)c4)cc3[C@H]3OCC[C@@H]23)cc1 (some centres unmarked) [Compound 69L72] | 2940 nM
25 | No MDM2 | Cc1ccc(NS(=O)(=O)c2ccc3c(c2)[C@H]2OCC[C@H]2C(c2ccc(C(=O)C(C)C)cc2)N3)cc1Cl (some centres unmarked) [Compound 69L73, N-(3-chloro-4-methylphenyl)-4-(4-isobutyrylphenyl)-2,3,3a,4,5,9b-hexahydrofuran[3,2-c]quinolone-8-sulfonamide] | 1560 nM
26 | No MDM2 | CC(C)C(=O)c1ccc(C2Nc3ccc(S(=O)(=O)N[C@H]4CC[C@H](C)CC4)cc3[C@H]3OCC[C@@H]23)cc1 (some centres unmarked) [Compound 69L78] | 3670 nM
27 | No MDM2 | Cc1cc(NS(=O)(=O)c2ccc3c(c2)[C@H]2OCC[C@H]2C(c2ccc(C(=O)C(C)C)cc2)N3)ccc1F (some centres unmarked) [Compound 69L79] | 2910 nM
28 | No MDM2 | Cc1ccc(NS(=O)(=O)c2ccc3c(c2)C2OCC[C@H]2C(c2cccc(C(=O)C(C)C)c2)N3)cc1C (some centres unmarked) [Compound 69L94] | 3560 nM
29 | inhibition | Cc1cccc(NS(=O)(=O)c2ccc3c(c2)[C@H]2OCC[C@H]2[C@H](c2ccc(C(=O)C(C)C)cc2)N3)c1 [Compound 69L95] | 1420 nM
30 | No MDM2 | CC(C)c1ccc(C2Nc3ccc(S(=O)(=O)Nc4cccc(C(C)O)c4)cc3[C@H]3OCC[C@@H]23)cc1 (some centres unmarked) [Compound 69L116] | 120 nM
31 | No MDM2 | CC(C)C(=O)c1ccc(C2Nc3ccc(S(=O)(=O)Nc4ccc5c(c4)CCO5)cc3[C@H]3OCC[C@@H]23)cc1 (some centres unmarked) [Compound 69L117] | 300 nM
